From patent US10912814B2, “Combination formulation of three antiviral compounds” (priority 2016, dated 2021)
Where two headings read alike, the source gives them in different places.

Columns and labels:
[1] = Physical (solid-state) stability, XRPD; type: physicochemical; details: for tendency to crystallize in the presence of pre-existing crystalline voxilaprevir: spiked SOF/VEL SSD/VOX SSD tablets
Method: As described previously, Form VIII of voxilaprevir is characterized by an X-ray powder diffractogram comprising the following peaks (±0.2°): at 7.8, 8.2, and 20.2°2θ, as determined on a diffractometer using Cu-Kα radiation.
Voxilaprevir SSD is hygroscopic, with a reversible weight gain of 11% when cycled between 0% and 90% RH at 25° C.
The impact of voxilaprevir SSD potency on the chemical and physical stability thereof was also evaluated (Table 5). This development study compared the properties of typical voxilaprevir SSD with 50% w/w voxilaprevir/50% w/w copovidone (Lot C) to those of sub-potent voxilaprevir SSD with 40% w/w voxilaprevir/60% w/w copovidone (Lot D) and super-potent voxilaprevir SSD with 60% w/w voxilaprevir/40% w/w copovidone (Lot E). Voxilaprevir SSD was packaged in a designated commercial packaging configuration (i.e., polyethylene bags sealed in aluminum bags with 5% w/w desiccant) and stored for 6 months at both 25° C./60% RH and 40° C./75% RH. […] All samples remained amorphous by XRPD throughout the duration of the study.
The impact of reprocessed voxilaprevir SSD on the chemical and physical stability of voxilaprevir SSD was additionally evaluated. Voxilaprevir was reprocessed (re-dissolved, spray-dried, and secondary dried) twice and packaged in a designated commercial packaging configuration (i.e., polyethylene bags sealed in aluminum bags with 5% w/w desiccant) and stored for 6 months at both 25° C./60% RH and 40° C./75% RH. […] All samples remained amorphous by XRPD throughout the duration of the study.
In some embodiments, the film-coated tablets were packaged in 75 and 100 mL white HDPE bottles (Lots A and B, respectively, as described in Tables 11A, 11B) with 1 g silica gel desiccant canisters and a polyester fiber coil. The 75 and 100 mL HDPE bottles contained fourteen and twenty eight tablets, respectively. […] The packaged tablets (14 and 28 counts) were evaluated for stability at 40° C./75% RH and 25° C./60% RH. Additionally, the 14-count bottles (without cap) were evaluated for stability under open conditions at 40° C./75% RH. […]

[2] = Relative bioavailability study of voxilaprevir amorphous free acid tablets vs Form VI tablets in healthy subjects (fasted, fed); type: in vivo, human; details: for AUC(0-inf) / Cmax: human, in vivo, oral, 100 mg
Description: Accordingly, a spray dried dispersion of voxilaprevir in the amorphous free acid form was selected for incorporation into the tablet formulation.

[3] = Storage stability: appearance, assay/label strength (LS), total impurities/degradation products; type: physicochemical; details: all conditions
Method: In some embodiments, the film-coated tablets were packaged in 75 and 100 mL white HDPE bottles (Lots A and B, respectively, as described in Tables 11A, 11B) with 1 g silica gel desiccant canisters and a polyester fiber coil. The 75 and 100 mL HDPE bottles contained fourteen and twenty eight tablets, respectively. Each HDPE bottle was capped using a white, continuous thread, child-resistant polypropylene screw cap with an […], aluminum-faced line. The packaged tablets (14 and 28 counts) were evaluated for stability at 40° C./75% RH and 25° C./60% RH. Additionally, the 14-count bottles (without cap) were evaluated for stability under open conditions at 40° C./75% RH.
For each of the impact studies, the sofosbuvir/velpatasvir SSD/voxilaprevir SSD tablets were packaged in a designated commercial packaging configuration (28-count, 100 mL HPDE bottle, coil, 1 g desiccant), and stored for 12 weeks at 25° C./60% RH and 40° C./75% RH. Tablets were also packaged in open containers (28-count, 100 mL HPDE bottle without cap) and stored for 4 weeks at 40° C./75% RH and for 1 week at 50° C./92% RH.
The sofosbuvir/velpatasvir SSD/voxilaprevir SSD tablets were packaged in the designated commercial packaging configuration (28-count, 100 mL HPDE bottle, coil, 1 g desiccant), and stored for 6 months at 25° C./60% RH and 40° C./75% RH.

[4] = Tablet dissolution in 50 mM sodium acetate buffer pH 5.0 with 2.0% w/v Polysorbate 80 and 0.001% w/v BHT, 75 rpm, 900 mL, 37° C., USP Type II; type: physicochemical; details: tablets containing voxilaprevir SSD
Method: FIGS. 10-12 depict additional dissolution profiles for the sofosbuvir/velpatasvir SSD/voxilaprevir SSD tablets having the formulation described in Table 13 and which were used in phase 1, 2, and 3 clinical studies, where the dissolution testing was conducted at pH 5.0 acetate buffer containing 2.0% w/v polysorbate 80. Four batches of the sofosbuvir/velpatasvir SSD/voxilaprevir SSD tablets were tested, with Batch A manufactured at 100 kg and Batches B, C and D manufactured at 145 kg. All other aspects of the formulation and manufacturing process were otherwise equivalent. The four batches were packed in the same commercial configuration: 28 count, 100 mL HPDE bottle with 1 g silica gel desiccant canister and a polyester fiber coil. […] Moreover, for Batch A, the amount dissolved at 30 min remained between 98 and 100% for sofosbuvir, between 90 and 92% for velpatasvir SSD, and between 89 and 93% for voxilaprevir SSD. […] For Batch D, the amount dissolved at 30 min remained at 100% for sofosbuvir, between 90 and 91% for velpatasvir SSD, and between 89 and 91% for voxilaprevir SSD. Release of velpatasvir SSD and voxilaprevir SSD from the sofosbuvir/velpatasvir SSD/voxilaprevir SSD tablets associated with all four Batches was complete after 60 minutes.

[5] = Tablet dissolution as a function of medium pH and composition (Apparatus II, 75 rpm, 900 mL, 37° C.); type: physicochemical; details: Formulation G tablets
BCS classification = type: physicochemical
[6] = Tablet dissolution in 50 mM sodium acetate buffer pH 5.0 with 2.0% w/v Polysorbate 80 and 0.001% w/v BHT, 75 rpm, 900 mL, 37° C., USP Type II; type: physicochemical; details: for dissolution at 30 minutes: after 4 weeks open at 40° C./75% RH
[7] = Photostability (light exposure, ICH Q1B); type: physicochemical; details: tablets film-coated to weight gains of 2.1 to 5.4%, ICH Q1B
Method: In some embodiments, and the Examples presented herein, the tablet formulation includes sofosbuvir having Form 6 and, optionally, a trace amount of Form 7.
Tablet cores and film-coated tablets were evaluated per ICH Q1B guidelines with a total of illumination of more than 1.2 million-lux hours and a total irradiance of more than 200 W·hr/m^2.

[8] = Voxilaprevir Form VI single and multiple oral dose pharmacokinetics in healthy subjects; type: in vivo, human; details: for Cmax / half-life / Tmax / AUC / AUC(0-inf) / AUC(0-t): human, plasma; for Cmax / AUC / AUC(0-inf) / AUC(0-t): mean
Method: Pub. No. 2015/0175625 A1. Initial studies were conducted using the crystalline Form VI of voxilaprevir. As described previously, Form VI of voxilaprevir is characterized by an X-ray powder diffractogram comprising the following peaks (±0.2°): at 14.6, 15.4, and 20.0°2θ, as determined on a diffractometer using Cu-Kα radiation. Following single and multiple oral doses of voxilaprevir, Form VI, maximum plasma concentrations occurred between 2.0 and 5.0 hours (median tmax). […] Steady-state concentrations of voxilaprevir, Form VI were achieved after 7 days of once-daily dosing across all dose levels (Table 2).

[9] = 100 mg tablets, healthy subjects
[10] = Amorphous Free Acid 100 mg, healthy subjects, fed (with moderate food)
[11] = single dose 100 mg, healthy subjects, fasted (N = 15)

## CC[C@@H]1[C@@H]2CN(C(=O)[C@H](C(C)(C)C)NC(=O)O[C@@H]3C[C@H]3CCCCC(F)(F)c3nc4ccc(OC)cc4nc3O2)[C@@H]1C(=O)N[C@]1(C(=O)NS(=O)(=O)C2(C)CC2)C[C@H]1C(F)F [Amorphous Free Acid]
[1]
  tendency to crystallize in the presence of pre-existing crystalline voxilaprevir: no tendency to crystallize
[2]; [9]
  higher Cmax compared to tablets (2×50 mg) comprising voxilaprevir, Form VI: ~43%
  higher exposure (AUC) compared to tablets (2×50 mg) comprising voxilaprevir, Form VI: approximately 9%
[2]; Amorphous Free Acid 100 mg, healthy subjects, fasted (N = 15)
  AUC(0-inf): 367 ng·h/mL
[2]; [10]
  AUC(0-inf): 494 ng·h/mL
  Cmax: 44.2 ng/mL
[2]; [11]
  AUC(0-inf): 367 ng·h/mL
  Cmax: 32.7 ng/mL
[2]; single dose, fasted
  Cmax Geometric Least Square Ratio, Amorphous Free Acid/Form VI GMR: 1.43

## CC[C@@H]1[C@@H]2CN(C(=O)[C@H](C(C)(C)C)NC(=O)O[C@@H]3C[C@H]3CCCCC(F)(F)c3nc4ccc(OC)cc4nc3O2)[C@@H]1C(=O)N[C@]1(C(=O)NS(=O)(=O)C2(C)CC2)C[C@H]1C(F)F [Voxilaprevir, (1aR,5S,8S,9S,10R,22aR)-5-tert-butyl-N-{(1R,2R)-2-(difluoromethyl)-1-[(1-methylcyclopropanesulfonyl)carbamoyl]cyclopropyl}-9-ethyl-18,18-difluoro-14-methoxy-3,6-dioxo-1,1a,3,4,5,6,9,10,18,19,20,21,22,22a-tetradecahydro-8H-7,10-methanocyclopropa[18,19][1,10,3,6]dioxadiazacyclononadecino[11,12-b]quinoxaline-8-carboxamide]
[3]; desiccant/packaging study tablets, 6 months
  total impurities/degradation products: 0.0%
[3]; tablet Lots A-D from sub-potent/super-potent VEL SSD and VOX SSD
  total impurities/degradation products: 0.7%
[3]; tablets from VEL SSD with 6.0% residual ethanol and VOX SSD with 2.1% residual acetone
  total impurities/degradation products: 0.0%
[3]; tablets from VEL SSD with 7.0% and VOX SSD with 3.2% water content
  total impurities/degradation products: 0.0%
[4]
  released at 30 minutes: 91%
[5]
  dissolution at 60 minutes in pH 4.0 and 5.0 containing 2.0% w/v polysorbate 80: complete dissolution
  dissolution in pH 2.0, 4.5 and 6.8 buffers, FaSSIF and FeSSIF: Incomplete dissolution
BCS classification
  aqueous solubility, pH dependence: pH-dependent solubility
[6]; SSD potency tablets Lot A
  dissolution at 30 minutes: 85%
[6]; SSD potency tablets Lot B
  dissolution at 30 minutes: 91%
[6]; SSD potency tablets Lots C and D
  dissolution at 30 minutes: 92%
[6]; spiked tablets containing 5% w/w voxilaprevir Form VIII or Form X
  released at 30 minutes: 84%
[6]; spiked tablets containing 10% w/w voxilaprevir Form VIII or Form X
  released at 30 minutes: 80%
[6]; spiked tablets containing 20% w/w voxilaprevir Form VIII or Form X
  released at 30 minutes: 73%
[6]; tablets containing 0% w/w crystalline voxilaprevir
  released at 30 minutes: 91%
[6]; tablets containing neat amorphous voxilaprevir free acid (physical mixture with copovidone)
  released at 30 minutes: 76%
[7]
  level of degradation products: 0.0%

## COC[C@H]1C[C@@H](c2ncc(-c3ccc4c(c3)COc3cc5c(ccc6nc([C@@H]7CC[C@H](C)N7C(=O)[C@@H](NC(=O)OC)C(C)C)[nH]c65)cc3-4)[nH]2)N(C(=O)[C@H](NC(=O)OC)c2ccccc2)C1 [amorphous velpatasvir free base]
[1]
  tendency to crystallize in the presence of pre-existing crystalline voxilaprevir: no tendency to crystallize

## CC[C@@H]1[C@@H]2CN(C(=O)[C@H](C(C)(C)C)NC(=O)O[C@@H]3C[C@H]3CCCCC(F)(F)c3nc4ccc(OC)cc4nc3O2)[C@@H]1C(=O)N[C@]1(C(=O)NS(=O)(=O)C2(C)CC2)C[C@H]1C(F)F [voxilaprevir, Form VI]
[8]; oral, 30 mg, multiple dose 30 mg
  Cmax: 7.3 ng/mL
[8]; oral, 30 mg, multiple dose 30 mg, median
  half-life: 41 h
[8]; oral, 30 mg, multiple dose 30 mg, median, read-out: tmax
  Tmax: 5 h
[8]; oral, 30 mg, single dose 30 mg
  Cmax: 3.7 ng/mL
[8]; oral, 30 mg, single dose 30 mg, median
  half-life: 9.37 h
[8]; oral, 30 mg, single dose 30 mg, median, read-out: tmax
  Tmax: 4 h
[8]; oral, 100 mg, multiple dose 100 mg
  Cmax: 46 ng/mL
[8]; oral, 100 mg, multiple dose 100 mg, median
  half-life: 30.5 h
[8]; oral, 100 mg, multiple dose 100 mg, median, read-out: tmax
  Tmax: 5 h
[8]; oral, 100 mg, single dose 100 mg
  Cmax: 17.6 ng/mL
[8]; oral, 100 mg, single dose 100 mg, median
  half-life: 36.7 h
[8]; oral, 100 mg, single dose 100 mg, median, read-out: tmax
  Tmax: 3 h
[8]; oral, 300 mg, multiple dose 300 mg
  Cmax: 155 ng/mL
[8]; oral, 300 mg, multiple dose 300 mg, median
  half-life: 27.6 h
[8]; oral, 300 mg, multiple dose 300 mg, median, read-out: tmax
  Tmax: 5 h
[8]; oral, 300 mg, single dose 300 mg
  Cmax: 34.5 ng/mL
[8]; oral, 300 mg, single dose 300 mg, median
  half-life: 35.5 h
[8]; oral, 300 mg, single dose 300 mg, median, read-out: tmax
  Tmax: 2 h
[8]; oral, multiple dose 30 mg
  AUC: 74.2 ng·h/mL
[8]; oral, multiple dose 100 mg
  AUC: 364 ng·h/mL
[8]; oral, multiple dose 300 mg
  AUC: 1030 ng·h/mL
[8]; oral, single dose 30 mg
  AUC(0-inf): 56.9 ng·h/mL
  AUC(0-t): 33 ng·h/mL
[8]; oral, single dose 100 mg
  AUC(0-inf): 245 ng·h/mL
  AUC(0-t): 188 ng·h/mL
[8]; oral, single dose 300 mg
  AUC(0-inf): 485 ng·h/mL
  AUC(0-t): 425 ng·h/mL
[8]; po, single and multiple oral doses, read-out: time of maximum plasma concentrations (median tmax)
  Tmax: 2 to 5 h
[8]; single and multiple dosing, 30 to 300 mg, healthy subjects
  dose linearity of pharmacokinetics: dose-linear pharmacokinetics
[1]; converted to crystalline Form VIII
  physical stability of crystal form: physically metastable
